Here are results for 28 compounds from US20230391752A1, “PYRROLIDINE-3-CARBOXAMIDE DERIVATIVES AND RELATED USES” (Chulalongkorn University, priority 2020, published 2023).

The test system of one assay is HBV. The assay can be described thus: In vitro anti-HBV activity in HepG2.2.15 cell line (intracellular HBV DNA by qPCR at 1 μM). In kind it is cell-based. As to conditions: Hepatitis B virus, 144 h; HepG2.2.15 cells, 1 μM compound, 6 days, intracellular HBV DNA as percentage compared to vehicle control (0.5% DMSO). In short, it runs like this: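 HepG2.2.15 cells given compound at 1 μM (0.5% DMSO final) for 3 days, then fresh compound-containing medium for 3 more days. After 6 days intracellular HBV DNA measured by qPCR. Expressed as % of 0.5% DMSO vehicle control and binned into letter ranges.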
In general terms: Quantitative PCR measures a nucleic acid by following its amplification.

A further assay addresses T1, HBV core protein (Cp149) (Hepatitis B virus genotype D subtype ayw, UniProt P03146).
T1 construct: HBV core C-terminally truncated protein (HBV Cp149); made in house
The assay can be described thus: HBV capsid assembly by size exclusion chromatography (SEC). In kind it is biochemical. As to conditions: 50 μM compound, 15 μM Cp149, 16 hours at 21° C. A general note: SEC sorts molecules by how far they enter the pores of the column.

T1 sequence (P03146 1-149): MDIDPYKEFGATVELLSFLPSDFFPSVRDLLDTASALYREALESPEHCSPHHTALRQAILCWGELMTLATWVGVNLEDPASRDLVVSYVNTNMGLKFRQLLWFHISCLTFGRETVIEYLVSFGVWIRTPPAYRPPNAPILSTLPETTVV

For `Cc1nccnc1-c1ccc2c(Cl)c(C(=O)N3CC[C@H](C(=O)Nc4ccc(F)c(C#N)c4)C3)[nH]c2c1` [Example 139, (S)-1-(3-chloro-6-(3-methylpyrazin-2-yl)-1H-indole-2-carbonyl)-N-(3-cyano-4-fluorophenyl) pyrrolidine-3-carboxamide], in the assay on HBV, the activity at 1 µM is under 45%. Besides, on HBV core protein (Cp149), the “Size of induced capsids based on SEC retention times” value (from here on “Size of induced capsids based”) was “capsid retention times between BAY 41-4109 and NVR 3-778”.
As for `Cc1c(-c2ccc(C(=O)N3CC[C@H](C(=O)Nc4cc(F)c(F)c(F)c4)C3)[nH]2)cnc2[nH]ccc12` [Example 129, (S)-1-(5-(4-methyl-1H-pyrrolo[2,3-b]pyridin-5-yl)-1H-pyrrole-2-carbonyl)-N-(3,4,5-trifluorophenyl)pyrrolidine-3-carboxamide], in the assay on HBV, the activity at 1 µM was under 45%. Moreover, the “Size of induced capsids based” value at HBV core protein (Cp149) is “induced capsids similar in size to NVR 3-778”.
Regarding `N#Cc1c(C(=O)N2CC[C@H](C(=O)Nc3cc(F)c(F)c(F)c3)C2)[nH]c2ccccc12` [Example 45, (S)-1-(3-cyano-1H-indole-2-carbonyl)-N-(3,4,5-trifluorophenyl)pyrrolidine-3-carboxamide], the activity at 1 µM in the assay with HBV was in the range of 60 to 70%. On HBV core protein (Cp149), the “Size of induced capsids based” value is “induced capsids similar in size to NVR 3-778”.
For the compound `Cc1ncnc(C)c1-c1ccc2c(Cl)c(C(=O)N3CC[C@H](C(=O)Nc4cc(F)c(F)c(F)c4)C3)[nH]c2c1` [Example 133, (S)-1-(3-chloro-6-(4,6-dimethylpyrimidin-5-yl)-1H-indole-2-carbonyl)-N-(3,4,5-trifluorophenyl)pyrrolidine-3-carboxamide], the activity at 1 µM with HBV lay within 45 to 60%. In addition, the “Size of induced capsids based” value on HBV core protein (Cp149) was “capsid retention times between BAY 41-4109 and NVR 3-778”.
For `O=C(Nc1cc(F)c(F)c(F)c1)[C@H]1CCN(C(=O)c2ccc(Cl)[nH]2)C1` [Example 52, (S)-1-(5-chloro-1H-pyrrole-2-carbonyl)-N-(3,4,5-trifluorophenyl)pyrrolidine-3-carboxamide], the activity at 1 µM in the assay on HBV fell in the range of 70 to 80%. The “Size of induced capsids based” value on HBV core protein (Cp149) was “induced capsids similar in size to NVR 3-778”.
In the case of `Cc1ncnc(C)c1-c1ccc2cc(C(=O)N3CC[C@H](C(=O)Nc4cc(F)c(F)c(F)c4)C3)[nH]c2c1` [Example 132, (S)-1-(6-(4,6-dimethylpyrimidin-5-yl)-1H-indole-2-carbonyl)-N-(3,4,5-trifluorophenyl) pyrrolidine-3-carboxamide], in the assay on HBV, the activity at 1 µM lay within 45 to 60%. Also, the “Size of induced capsids based” value on HBV core protein (Cp149) is listed as “induced capsids similar in size to NVR 3-778”.
`C[C@H]1[C@@H](C(=O)Nc2ccc(F)c(C#N)c2)CCN1C(=O)c1[nH]c2cc(-c3cn[nH]c3)ccc2c1Cl` [Example 141, (2S,3S)-1-(3-chloro-6-(1H-pyrazol-4-yl)-1H-indole-2-carbonyl)-N-(3-cyano-4-fluorophenyl)-2-methylpyrrolidine-3-carboxamide] came in with an activity at 1 µM in the assay on HBV of under 45%. The “Size of induced capsids based” value on HBV core protein (Cp149) was “capsid retention times between BAY 41-4109 and NVR 3-778”.
In the case of `Cc1cc[nH]c(=O)c1-c1ccc(C(=O)N2CC[C@H](C(=O)Nc3cc(F)c(F)c(F)c3)C2)[nH]1` [Example 118, (S)-1-(5-(4-methyl-2-oxo-1,2-dihydropyridin-3-yl)-1H-pyrrole-2-carbonyl)-N-(3,4,5-trifluorophenyl)pyrrolidine-3-carboxamide], the activity at 1 µM with HBV was 60 to 70%.
Same read-out and setting: the result for `O=C(Nc1ccc(F)c(Cl)c1)[C@H]1CCN(C(=O)c2nc3cccnc3[nH]2)C1` [Example 69, (S)—N-(3-chloro-4-fluorophenyl)-1-(3H-imidazo[4,5-b]pyridine-2-carbonyl)pyrrolidine-3-carboxamide] reads 70 to 80%.
In the assay with HBV, `Cc1ncn(C)c1-c1ccc(C(=O)N2CC[C@H](C(=O)Nc3cc(F)c(F)c(F)c3)C2)[nH]1` [Example 107, (S)-1-(5-(1,4-dimethyl-1H-imidazol-5-yl)-1H-pyrrole-2-carbonyl)-N-(3,4,5-trifluorophenyl) pyrrolidine-3-carboxamide] displayed an activity at 1 µM of 70 to 80%.
Still for that read-out and setting: the result for `Cc1ncncc1-c1ccc(C(=O)N2CC[C@H](C(=O)Nc3cc(F)c(F)c(F)c3)C2)[nH]1` [Example 89, (S)-1-(5-(4-methylpyrimidin-5-yl)-1H-pyrrole-2-carbonyl)-N-(3,4,5-trifluorophenyl) pyrrolidine-3-carboxamide] reads under 45%; that for `COc1ncnc(C)c1-c1ccc(C(=O)N2CC[C@H](C(=O)Nc3ccc(F)c(Cl)c3)C2)[nH]1` [Example 106, (S)—N-(3-chloro-4-fluorophenyl)-1-(5-(4-methoxy-6-methylpyrimidin-5-yl)-1H-pyrrole-2-carbonyl)pyrrolidine-3-carboxamide], under 45%; that for `O=C(Nc1cc(F)c(F)c(F)c1)[C@H]1CCN(C(=O)c2cc3occc3[nH]2)C1` [Example 9, (S)-1-(4H-furo[3,2-b]pyrrole-5-carbonyl)-N-(3,4,5-trifluorophenyl)pyrrolidine-3-carboxamide], 80 to 90%.
As for `O=C(Nc1cc(F)c(F)c(F)c1)[C@H]1CCN(C(=O)c2ccc(-c3cncnc3)[nH]2)C1` [Example 79, (S)-1-(5-(pyrimidin-5-yl)-1H-pyrrole-2-carbonyl)-N-(3,4,5-trifluorophenyl)pyrrolidine-3-carboxamide], in the assay on HBV, the activity at 1 µM is under 45%.
Same read-out and setting: the result for `N#Cc1ccc2[nH]c(C(=O)N3CC[C@H](C(=O)Nc4cc(F)c(F)c(F)c4)C3)cc2c1` [Example 8, (S)-1-(5-cyano-1H-indole-2-carbonyl)-N-(3,4,5-trifluorophenyl)pyrrolidine-3-carboxamide] reads 80 to 90%; that for `CC(=O)c1c[nH]c(C(=O)N2CC[C@H](C(=O)Nc3cc(F)c(F)c(F)c3)C2)c1` [Example 38, (S)-1-(4-acetyl-1H-pyrrole-2-carbonyl)-N-(3,4,5-trifluorophenyl)pyrrolidine-3-carboxamide], over 90%; that for `O=C(Nc1cc(F)c(F)c(F)c1)[C@H]1CCN(C(=O)c2ccc(CO)[nH]2)C1` [Example 56, (S)-1-(5-(hydroxymethyl)-1H-pyrrole-2-carbonyl)-N-(3,4,5-trifluorophenyl)pyrrolidine-3-carboxamide], over 90%.
In the case of `C[C@H]1[C@@H](C(=O)Nc2cc(F)c(F)c(F)c2)CCN1C(=O)c1[nH]c2ccccc2c1CO` [Example 72, (2S,3S)-1-(3-(hydroxymethyl)-1H-indole-2-carbonyl)-2-methyl-N-(3,4,5-trifluorophenyl)pyrrolidine-3-carboxamide], in the assay with HBV, the activity at 1 µM lay in the range of 60 to 70%.
The same measure, in the same setting: next, `Cc1cc(Cl)c(C(=O)N2CC[C@H](C(=O)Nc3cc(F)c(F)c(F)c3)C2)s1` [Example 5, (S)-1-(3-chloro-5-methylthiophene-2-carbonyl)-N-(3,4,5-trifluorophenyl)pyrolidine-3-carboxamide]: 80 to 90%; `Cc1ncnc(C)c1-c1ccc2c(Cl)c(C(=O)N3CC[C@H](C(=O)NCc4cnc(Cl)s4)C3)[nH]c2c1` [Example 136, (S)-1-(3-chloro-6-(4,6-dimethylpyrimidin-5-yl)-1H-indole-2-carbonyl)-N-((2-chlorothiazol-5-yl)methyl)pyrrolidine-3-carboxamide]: over 90%.
Regarding `Cc1cc(NC(=O)[C@H]2CCN(C(=O)c3ccc(-c4c(C)nn(CC(=O)O)c4C)[nH]3)[C@H]2C)ccc1F` [Example 147, 2-(4-(5-((2S,3S)-3-((4-fluoro-3-methylphenyl)carbamoyl)-2-methylpyrrolidine-1-carbonyl)-1H-pyrrol-2-yl)-3,5-dimethyl-1H-pyrazol-1-yl)acetic acid], the activity at 1 µM in the assay on HBV is 45 to 60%.
As for `Cc1nn(C)c(C)c1-c1ccc(C(=O)N2CC[C@H](C(=O)Nc3cc(F)c(F)c(F)c3)C2)[nH]1` [Example 88, (S)—N-(3,4,5-trifluorophenyl)-1-(5-(1,3,5-trimethyl-1H-pyrazol-4-yl)-1H-pyrrole-2-carbonyl) pyrrolidine-3-carboxamide], the activity at 1 µM in the assay with HBV is under 45%.
Consider `O=C(Nc1cc(F)c(F)c(Br)c1)[C@H]1CCN(C(=O)c2cc3ccccc3[nH]2)C1` [Example 10, (S)—N-(3-bromo-4,5-difluorophenyl)-1-(1H-indole-2-carbonyl)pyrrolidine-3-carboxamide], for which, in the assay with HBV, the activity at 1 µM is 70 to 80%.
On to `CC(O)c1c[nH]c(C(=O)N2CC[C@H](C(=O)Nc3cc(F)c(F)c(F)c3)C2)c1` (stereo partly drawn) [Example 39, (3S)-1-(4-(1-hydroxyethyl)-1H-pyrrole-2-carbonyl)-N-(3,4,5-trifluorophenyl)pyrrolidine-3-carboxamide], for which the activity at 1 µM in the assay on HBV lay in the range of 70 to 80%.
Take `O=C(Nc1cc(F)c(F)c(F)c1)[C@H]1CCN(C(=O)c2ccc(-c3cnccn3)[nH]2)C1` [Example 131, (S)-1-(5-(pyrazin-2-yl)-1H-pyrrole-2-carbonyl)-N-(3,4,5-trifluorophenyl)pyrrolidine-3-carboxamide]: the activity at 1 µM with HBV fell in the range of 45 to 60%.
Consider `O=C(Nc1cc(F)c(F)c(F)c1)[C@H]1CCN(C(=O)c2ccc3c(CNCCO)c[nH]c3c2)C1` [Example 37, (S)-1-(3-(((2-hydroxyethyl)amino)methyl)-1H-indole-6-carbonyl)-N-(3,4,5-trifluorophenyl) pyrrolidine-3-carboxamide], for which the activity at 1 µM with HBV is over 90%.
For `O=C(Nc1cc(F)c(F)c(F)c1)[C@H]1CCN(C(=O)c2[nH]c3ccccc3c2-c2cn[nH]c2)C1` [Example 140, (S)-1-(3-(1H-pyrazol-4-yl)-1H-indole-2-carbonyl)-N-(3,4,5-trifluorophenyl)pyrrolidine-3-carboxamide], the activity at 1 µM in the assay with HBV is over 90%.
Same read-out and setting: next, `O=C(Nc1cc(F)c(F)c(F)c1)[C@H]1CCN(C(=O)c2cc3cccnc3[nH]2)C1` [Example 54, (S)-1-(1H-pyrrolo[2,3-b]pyridine-2-carbonyl)-N-(3,4,5-trifluorophenyl)pyrrolidine-3-carboxamide]: 70 to 80%.
